Assay results as given in patent publication US20260098061A1, “EPHA2-BINDING PENDING PEPTIDE AND COMPOSITION COMPRISING SAME” (PeptiDream Inc., priority 2022, published 2026).
Numbered stars: 1 amine (or outer) side, 2 acyl side, 3 side chain; on linkers, the order of the positions; unused ones are H or OH. Bridge positions count the residues as written; N and C are the ends. Square brackets hold non-standard residues; d marks the D form. Side chains are listed from the residue outwards. Peptide text beside a SMILES is read from it. * marks the point of attachment. NH(1-deoxy-D-glucityl) = OC[C@@H](O)[C@@H](O)[C@H](O)[C@@H](O)CN*; Trp(1-Me,7-Cl) = Cn1cc(C[C@H](N)C(=O)O)c2cccc(Cl)c21; dPhe(3-CONH2) = NC(=O)c1cccc(C[C@@H](N)C(=O)O)c1; Piperazinyl(4-CH2COOH) = O=C(O)CN1CCN(*)CC1; Trp(1-Me) = Cn1cc(C[C@H](N)C(=O)O)c2ccccc21; NMe3Pal = CN[C@@H](Cc1cccnc1)C(=O)O; NMeF = CN[C@@H](Cc1ccccc1)C(=O)O; hArg = N=C(N)NCCCC[C@H](N)C(=O)O; hCit = NC(=O)NCCCC[C@H](N)C(=O)O; Gly(cBu) = N[C@H](C(=O)O)C1CCC1; NMeE = CN[C@@H](CCC(=O)O)C(=O)O; Aad = N[C@@H](CCCC(=O)O)C(=O)O; NMeN = CN[C@@H](CC(N)=O)C(=O)O; CO = O=C([*:1])[*:2]

Target: T1, Recombinant Human EphA2 Fc Protein (Homo sapiens, UniProt P29317)
T1 construct: purchased Elabscience
Assay: SPR interaction analysis (Biacore T200), kinetics of peptides against EphA2
Assay type: binding
Conditions: Recombinant Human EphA2 Fc Protein captured by Human Antibody Capture kit; single-cycle kinetics; 25° C.; HBS-P+ buffer with 1% DMSO
In short: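 On a Biacore T200 at 25° C, Fc-tagged human EphA2 was captured via anti-human antibody; peptides ran as five serial dilutions in HBS-P+ pH 7.4 with 1% DMSO by single-cycle kinetics. Baseline-subtracted data fitted for ka and kd, from which KD was derived.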

Kd [nM]	Structure (SMILES)
< 1	CC(C)C[C@@H]1NC(=O)[C@H](CC(N)=O)NC(=O)[C@H](Cc2ccccc2)N(C)C(=O)[C@@H](Cc2cccc(C(N)=O)c2)NC(=O)CSC[C@@H](C(N)=O)NC(=O)[C@H](CCCC(N)=O)NC(=O)[C@H]([C@@H](C)O)NC(=O)[C@H](Cc2cn(C)c3ccccc23)NC(=O)[C@H](C(C)C)NC(=O)[C@H](Cc2cn(C)c3c(Cl)cccc23)NC(=O)[C@H](CC(N)=O)N(C)C(=O)[C@H](CCCC(N)=O)NC1=O [PDC_EphA2-00019422, df3CON-MeF-N-L-Hgn-MeN-W1Me7Cl-V-W1Me-T-Hgn-C-NH2] ({CH2CO}-[dPhe(3-CONH2)][NMeF]NL[Aad](NH2)[NMeN][Trp(1-Me,7-Cl)]V[Trp(1-Me)]T[Aad](NH2)C-NH2; thioether N-12)
< 1	CC(C)C[C@@H]1NC(=O)[C@H](CC(N)=O)NC(=O)[C@H](Cc2ccccc2)N(C)C(=O)[C@@H](Cc2cccc(C(N)=O)c2)NC(=O)CSC[C@@H](C(N)=O)NC(=O)[C@H](CCCC(N)=O)NC(=O)[C@H]([C@@H](C)O)NC(=O)[C@H](Cc2cn(C)c3ccccc23)NC(=O)[C@H](C(C)C)NC(=O)[C@H](Cc2cn(C)c3ccccc23)NC(=O)[C@H](CC(N)=O)N(C)C(=O)[C@H](CCCC(N)=O)NC1=O [PDC_EphA2-00019423, df3CON-MeF-N-L-Hgn-MeN-W1Me-V-W1Me-T-Hgn-C-NH2] ({CH2CO}-[dPhe(3-CONH2)][NMeF]NL[Aad](NH2)[NMeN][Trp(1-Me)]V[Trp(1-Me)]T[Aad](NH2)C-NH2; thioether N-12)
< 1	CC(C)[C@@H]1NC(=O)[C@H](Cc2cn(C)c3c(Cl)cccc23)NC(=O)[C@H](CC(N)=O)N(C)C(=O)[C@H](CCCC(N)=O)NC(=O)[C@H](C2CCC2)NC(=O)[C@H](CC(N)=O)NC(=O)[C@H](Cc2cccnc2)N(C)C(=O)[C@@H](Cc2cccc(C(N)=O)c2)NC(=O)CSC[C@@H](C(N)=O)NC(=O)[C@H](CCCC(N)=O)NC(=O)[C@H]([C@@H](C)O)NC(=O)[C@H](Cc2cn(C)c3ccccc23)NC1=O [PDC_EphA2-00019424, df3CON-Me3Py-N-Cbg-Hgn-MeN-W1Me7Cl-V-W1Me-T-Hgn-C-NH2] ({CH2CO}-[dPhe(3-CONH2)][NMe3Pal]N[Gly(cBu)][Aad](NH2)[NMeN][Trp(1-Me,7-Cl)]V[Trp(1-Me)]T[Aad](NH2)C-NH2; thioether N-12)
< 1	C[C@@H](O)[C@@H]1NC(=O)[C@H](Cc2cn(C)c3ccccc23)NC(=O)[C@H](CCCCNC(=O)N2CCN(CC(=O)O)CC2)NC(=O)[C@H](Cc2cn(C)c3c(Cl)cccc23)NC(=O)[C@H](CC(N)=O)N(C)C(=O)[C@H](CCCC(N)=O)NC(=O)[C@H](C2CCC2)NC(=O)[C@H](CC(N)=O)NC(=O)[C@H](Cc2ccccc2)N(C)C(=O)[C@@H](Cc2cccc(C(N)=O)c2)NC(=O)CSC[C@@H](C(N)=O)NC(=O)[C@H](CCCC(N)=O)NC1=O [PDC_EphA2-00019425, df3CON-MeF-N-Cbg-Hgn-MeN-W1Me7Cl-KCOpipzaa-W1Me-T-Hgn-C-NH2] ({CH2CO}-[dPhe(3-CONH2)][NMeF]N[Gly(cBu)][Aad](NH2)[NMeN][Trp(1-Me,7-Cl)]K([CO-Piperazinyl(4-CH2COOH)])[Trp(1-Me)]T[Aad](NH2)C-NH2; thioether N-12)
< 1	C[C@@H](O)[C@@H]1NC(=O)[C@H](Cc2cn(C)c3ccccc23)NC(=O)[C@H](CCCCNC(N)=O)NC(=O)[C@H](Cc2cn(C)c3c(Cl)cccc23)NC(=O)[C@H](CCC(=O)O)N(C)C(=O)[C@H](CCCC(N)=O)NC(=O)[C@H](C2CCC2)NC(=O)[C@H](CC(N)=O)NC(=O)[C@H](Cc2ccccc2)N(C)C(=O)[C@@H](Cc2cccc(C(N)=O)c2)NC(=O)CSC[C@@H](C(N)=O)NC(=O)[C@H](CCCCNC(=N)N)NC1=O [PDC_EphA2-00019426, df3CON-MeF-N-Cbg-Hgn-MeN-W1Me7Cl-Hcit-W1Me-T-Hgn-C-NH2] ({CH2CO}-[dPhe(3-CONH2)][NMeF]N[Gly(cBu)][Aad](NH2)[NMeE][Trp(1-Me,7-Cl)][hCit][Trp(1-Me)]T[hArg]C-NH2; thioether N-12)
< 1	C[C@@H](O)[C@@H]1NC(=O)[C@H](Cc2cn(C)c3ccccc23)NC(=O)[C@H](CCCCNC(N)=O)NC(=O)[C@H](Cc2cn(C)c3c(Cl)cccc23)NC(=O)[C@H](CC(N)=O)N(C)C(=O)[C@H](CCCC(N)=O)NC(=O)[C@H](C2CCC2)NC(=O)[C@H](CC(N)=O)NC(=O)[C@H](Cc2cccnc2)N(C)C(=O)[C@@H](Cc2cccc(C(N)=O)c2)NC(=O)CSC[C@@H](C(N)=O)NC(=O)[C@H](CCCNC(=N)N)NC1=O [PDC_EphA2-00019428, df3CON-Me3Py-N-Cbg-Hgn-MeN-W1Me7Cl-Hcit-W1Me-T-R-C-NH2] ({CH2CO}-[dPhe(3-CONH2)][NMe3Pal]N[Gly(cBu)][Aad](NH2)[NMeN][Trp(1-Me,7-Cl)][hCit][Trp(1-Me)]TRC-NH2; thioether N-12)
< 1	C[C@@H](O)[C@@H]1NC(=O)[C@H](Cc2cn(C)c3ccccc23)NC(=O)[C@H](CCCCNC(N)=O)NC(=O)[C@H](Cc2cn(C)c3c(Cl)cccc23)NC(=O)[C@H](CC(N)=O)N(C)C(=O)[C@H](CCCC(N)=O)NC(=O)[C@H](C2CCC2)NC(=O)[C@H](CC(N)=O)NC(=O)[C@H](Cc2cccnc2)N(C)C(=O)[C@@H](Cc2cccc(C(N)=O)c2)NC(=O)CSC[C@@H](C(N)=O)NC(=O)[C@H](CCCCNC(=N)N)NC1=O [PDC_EphA2-00019429, df3CON-Me3Py-N-Cbg-Hgn-MeN-W1Me7Cl-Hcit-W1Me-T-Har-C-NH2] ({CH2CO}-[dPhe(3-CONH2)][NMe3Pal]N[Gly(cBu)][Aad](NH2)[NMeN][Trp(1-Me,7-Cl)][hCit][Trp(1-Me)]T[hArg]C-NH2; thioether N-12)
< 1	C[C@@H](O)[C@@H]1NC(=O)[C@H](Cc2cn(C)c3ccccc23)NC(=O)[C@H](CCCCNC(=O)N2CCN(CC(=O)O)CC2)NC(=O)[C@H](Cc2cn(C)c3c(Cl)cccc23)NC(=O)[C@H](CC(N)=O)N(C)C(=O)[C@H](CCCC(N)=O)NC(=O)[C@H](C2CCC2)NC(=O)[C@H](CC(N)=O)NC(=O)[C@H](Cc2cccnc2)N(C)C(=O)[C@@H](Cc2cccc(C(N)=O)c2)NC(=O)CSC[C@@H](C(N)=O)NC(=O)[C@H](CCCCNC(=N)N)NC1=O [PDC_EphA2-00019430, df3CON-Me3Py-N-Cbg-Hgn-MeN-W1Me7Cl-KCOpipzaa-W1Me-T-Har-C-NH2] ({CH2CO}-[dPhe(3-CONH2)][NMe3Pal]N[Gly(cBu)][Aad](NH2)[NMeN][Trp(1-Me,7-Cl)]K([CO-Piperazinyl(4-CH2COOH)])[Trp(1-Me)]T[hArg]C-NH2; thioether N-12)
< 1	C[C@@H](O)[C@@H]1NC(=O)[C@H](Cc2cn(C)c3ccccc23)NC(=O)[C@H](CCC(=O)NC[C@H](O)[C@@H](O)[C@H](O)[C@H](O)CO)NC(=O)[C@H](Cc2cn(C)c3c(Cl)cccc23)NC(=O)[C@H](Cc2ccccc2)N(C)C(=O)[C@H](CCCC(N)=O)NC(=O)[C@H](C2CCC2)NC(=O)[C@H](CC(N)=O)NC(=O)[C@H](Cc2ccccc2)N(C)C(=O)[C@@H](Cc2cccc(C(N)=O)c2)NC(=O)CSC[C@@H](C(N)=O)NC(=O)[C@H](CCCC(N)=O)NC1=O [PDC_EphA2-00019431, df3CON-MeF-N-Cbg-Hgn-MeF-W1Me7Cl-Qglucamine-W1Me-T-Hgn-C-NH2] ({CH2CO}-[dPhe(3-CONH2)][NMeF]N[Gly(cBu)][Aad](NH2)[NMeF][Trp(1-Me,7-Cl)]E(NH(1-deoxy-D-glucityl))[Trp(1-Me)]T[Aad](NH2)C-NH2; thioether N-12)
< 1	C[C@@H](O)[C@@H]1NC(=O)[C@H](Cc2cn(C)c3ccccc23)NC(=O)[C@H](CCCCNC(=O)N2CCN(CC(=O)O)CC2)NC(=O)[C@H](Cc2cn(C)c3c(Cl)cccc23)NC(=O)[C@H](Cc2ccccc2)N(C)C(=O)[C@H](CCCC(N)=O)NC(=O)[C@H](C2CCC2)NC(=O)[C@H](CC(N)=O)NC(=O)[C@H](Cc2ccccc2)N(C)C(=O)[C@@H](Cc2cccc(C(N)=O)c2)NC(=O)CSC[C@@H](C(N)=O)NC(=O)[C@H](CCCC(N)=O)NC1=O [PDC_EphA2-00019432, df3CON-MeF-N-Cbg-Hgn-MeF-W1Me7Cl-KCOpipzaa-W1Me-T-Hgn-C-NH2] ({CH2CO}-[dPhe(3-CONH2)][NMeF]N[Gly(cBu)][Aad](NH2)[NMeF][Trp(1-Me,7-Cl)]K([CO-Piperazinyl(4-CH2COOH)])[Trp(1-Me)]T[Aad](NH2)C-NH2; thioether N-12)
< 1	C[C@@H](O)[C@@H]1NC(=O)[C@H](Cc2cn(C)c3ccccc23)NC(=O)[C@H](CCC(=O)NC[C@H](O)[C@@H](O)[C@H](O)[C@H](O)CO)NC(=O)[C@H](Cc2cn(C)c3c(Cl)cccc23)NC(=O)[C@H](Cc2ccccc2)N(C)C(=O)[C@H](CCCC(N)=O)NC(=O)[C@H](C2CCC2)NC(=O)[C@H](CC(N)=O)NC(=O)[C@H](Cc2cccnc2)N(C)C(=O)[C@@H](Cc2cccc(C(N)=O)c2)NC(=O)CSC[C@@H](C(N)=O)NC(=O)[C@H](CCCC(N)=O)NC1=O [PDC_EphA2-00019433, df3CON-Me3Py-N-Cbg-Hgn-MeF-W1Me7Cl-Qglucamine-W1Me-T-Hgn-C-NH2] ({CH2CO}-[dPhe(3-CONH2)][NMe3Pal]N[Gly(cBu)][Aad](NH2)[NMeF][Trp(1-Me,7-Cl)]E(NH(1-deoxy-D-glucityl))[Trp(1-Me)]T[Aad](NH2)C-NH2; thioether N-12)
< 1	C[C@@H](O)[C@@H]1NC(=O)[C@H](Cc2cn(C)c3ccccc23)NC(=O)[C@H](CCCCNC(=O)N2CCN(CC(=O)O)CC2)NC(=O)[C@H](Cc2cn(C)c3c(Cl)cccc23)NC(=O)[C@H](Cc2ccccc2)N(C)C(=O)[C@H](CCCC(N)=O)NC(=O)[C@H](C2CCC2)NC(=O)[C@H](CC(N)=O)NC(=O)[C@H](Cc2cccnc2)N(C)C(=O)[C@@H](Cc2cccc(C(N)=O)c2)NC(=O)CSC[C@@H](C(N)=O)NC(=O)[C@H](CCCC(N)=O)NC1=O [PDC_EphA2-00019434, df3CON-Me3Py-N-Cbg-Hgn-MeF-W1Me7Cl-KCOpipzaa-W1Me-T-Hgn-C-NH2] ({CH2CO}-[dPhe(3-CONH2)][NMe3Pal]N[Gly(cBu)][Aad](NH2)[NMeF][Trp(1-Me,7-Cl)]K([CO-Piperazinyl(4-CH2COOH)])[Trp(1-Me)]T[Aad](NH2)C-NH2; thioether N-12)
